Experimental data: paper PMC6515479, “An Investigation on Glucuronidation Metabolite Identification, Isozyme Contribution, and Species Differences of GL-V9 In Vitro and In Vivo” (Molecules, 2019)

Assays:
Format in all cases: in vitro ADME
Settings in all cases: GL-V9 0.5, 1, 5 μM, 37 °C, 1 h
[1] = molecular target: T1, rUGT1A3 (Homo sapiens, UniProt P35503); assay: UGT phenotyping of GL-V9 glucuronidation, rUGT1A3
T1 construct: purchased Corning (Woburn, MA, USA)
T1 sequence (P35503 29-534): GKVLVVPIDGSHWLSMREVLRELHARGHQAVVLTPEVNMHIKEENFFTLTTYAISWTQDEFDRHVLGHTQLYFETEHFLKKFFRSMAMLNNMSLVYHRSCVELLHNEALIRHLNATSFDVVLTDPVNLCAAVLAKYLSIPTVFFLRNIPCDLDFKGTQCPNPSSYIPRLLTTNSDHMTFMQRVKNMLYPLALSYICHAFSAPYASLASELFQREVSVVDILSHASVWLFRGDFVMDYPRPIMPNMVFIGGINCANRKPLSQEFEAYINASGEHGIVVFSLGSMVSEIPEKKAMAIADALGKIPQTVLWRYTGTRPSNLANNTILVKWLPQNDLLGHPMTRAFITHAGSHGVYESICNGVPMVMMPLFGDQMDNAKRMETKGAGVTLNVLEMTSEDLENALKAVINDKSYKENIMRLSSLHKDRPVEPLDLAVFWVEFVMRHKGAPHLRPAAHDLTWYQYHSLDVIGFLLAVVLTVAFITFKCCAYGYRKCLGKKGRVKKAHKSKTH
Experimental: (§1) The composition of the incubation system (200 μL) contained liver microsomes of different species (0.1 mg protein/mL), 5 mM saccharolactone (D-saccharic acid 1,4-lactone monohydrate), 10 mM MgCl2, alamethicin (50 μg/mg protein), Tris-HCl buffer (50 mM, pH 7.4) and GL-V9 (1 μM). After 5 min of preincubation at 37 °C, UDPGA (5 mM) was added to initiate the phase II reaction. Control incubation samples were performed without UDPGA or without substrates (GL-V9). The reaction was terminated by addition of ice-cold methanol (three volumes) after incubation for 1 h at 37 °C. Samples were vortexed, centrifuged at 21,500× g for 10 min and then stored at 4 °C until HPLC-UV-TripleTOF analysis. To confirm that these metabolites are conjugates resulting from glucuronidation reaction, enzymatic hydrolysis of samples was processed. β-glucuronidase (100 KU, Sigma) was added and the hydrolysis was performed overnight at 37 °C. The control samples were carried out without β-glucuronidase under the same condition.
(§2) Twelve human recombinant UGT isoforms (rUGT1A1, rUGT1A3, rUGT1A4, rUGT1A6, rUGT1A7, rUGT1A8, rUGT1A9, rUGT1A10, rUGT2B4, rUGT2B7, rUGT2B15, and rUGT2B17) were employed to identify the main UGT enzyme(s) responsible for glucuronidation of GL-V9 under mixture conditions as described in Section 4.3. […]

[2] = molecular target: T2, rUGT1A4 (Homo sapiens, UniProt P22310); assay: UGT phenotyping of GL-V9 glucuronidation, rUGT1A4
T2 construct: purchased Corning (Woburn, MA, USA)
T2 sequence (P22310 29-534): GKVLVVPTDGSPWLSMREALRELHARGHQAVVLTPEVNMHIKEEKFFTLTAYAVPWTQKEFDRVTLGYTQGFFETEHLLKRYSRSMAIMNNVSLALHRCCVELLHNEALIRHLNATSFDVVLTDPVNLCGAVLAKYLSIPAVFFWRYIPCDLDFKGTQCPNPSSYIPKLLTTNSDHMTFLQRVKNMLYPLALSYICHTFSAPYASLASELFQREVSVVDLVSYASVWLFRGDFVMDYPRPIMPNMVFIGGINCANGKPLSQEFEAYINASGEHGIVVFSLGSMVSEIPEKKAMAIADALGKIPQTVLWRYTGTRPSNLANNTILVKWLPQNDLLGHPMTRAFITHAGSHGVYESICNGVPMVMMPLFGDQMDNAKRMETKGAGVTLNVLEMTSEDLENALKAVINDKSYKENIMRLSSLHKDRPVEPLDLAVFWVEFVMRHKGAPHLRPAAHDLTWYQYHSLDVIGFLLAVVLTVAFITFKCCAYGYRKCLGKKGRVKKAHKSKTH
Experimental: as §1, §2

[3] = molecular target: T3, rUGT2B15 (Homo sapiens, UniProt P54855); assay: UGT phenotyping of GL-V9 glucuronidation, rUGT2B15
T3 construct: purchased Corning (Woburn, MA, USA)
T3 sequence (P54855 24-530): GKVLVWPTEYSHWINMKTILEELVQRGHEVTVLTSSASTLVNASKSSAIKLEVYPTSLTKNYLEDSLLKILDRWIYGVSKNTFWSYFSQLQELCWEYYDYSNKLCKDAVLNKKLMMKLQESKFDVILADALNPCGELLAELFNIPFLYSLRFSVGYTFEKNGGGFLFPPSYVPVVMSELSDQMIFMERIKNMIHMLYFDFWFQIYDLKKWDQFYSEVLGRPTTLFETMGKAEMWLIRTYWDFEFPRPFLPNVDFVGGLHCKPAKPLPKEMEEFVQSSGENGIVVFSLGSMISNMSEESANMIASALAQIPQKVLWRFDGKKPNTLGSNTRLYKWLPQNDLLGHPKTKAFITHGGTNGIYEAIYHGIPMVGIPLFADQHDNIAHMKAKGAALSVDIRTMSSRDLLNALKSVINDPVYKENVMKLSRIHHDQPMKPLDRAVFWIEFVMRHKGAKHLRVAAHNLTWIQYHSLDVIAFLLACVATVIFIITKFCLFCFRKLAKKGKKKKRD
Experimental: as §1, §2

- Metabolism rate (glucuronidation) [1]: too low to be biologically relevant
- Metabolism rate (glucuronidation) [2]: too low to be biologically relevant
- Catalytic activity in the production of 5-O-glucuronide GL-V9 [3]: did not show apparent catalytic activity
SMILES: COc1c(OCCCCN2CCCC2)cc(O)c2c(=O)cc(-c3ccccc3)oc12 [GL-V9]
